{"source": "patent US4088778A", "about": "“Method for the treatment of hypertension” (priority 1975, dated 1978)", "format_in_all_cases": "in vivo, human patients", "key": {"[1]": {"test": "Clinical Experiment II: liver function test", "set-up": "GOT, Average Value / GPT, Average Value / LDH, Average Value / ALP, Average Value: unit not given here", "protocol": "(§1) 75 patients of hypertension or arteriosclerosis having subjective symptoms were tested. Some of them suffered from complications such as ischemia heart disease and cerebral thrombosis. They are detailed in Table 11.\n(§2) Two capsules were administered at one time, and the administration was conducted 3 times per day after eating. The duration of the continuous administration was 4 weeks. Combined use of drugs having the same functions as those of TN (vitamin E drugs, nicotinic acid, its derivatives and peripheral vasolidators) and minor tranquilizers was prohibited."}, "[2]": {"test": "Clinical Experiment II, double blind: blood pressure", "settings": "for Maximum Pressure, Average Value, all patients / Maximum Pressure, Average Value, patients of hypertension / Maximum Pressure, Average Value, no hypotensive agent in combination with TN / Maximum Pressure, Average Value, hypotensive agent administered in combination with TN: in mmHg (unit assumed)", "protocol": "Results of the clinical experiment conducted according to the double blind method in a different hospital will now be described.\nas §1, §2\n(a) Results of Blood Pressure Test: Variations of the blood pressure in all the patients and in the patients of hypertension alone are shown in Tables 12 and 13.\nThe change of the blood pressure in the patients of hypertension to whom a hypotensive agent was administrated in combination with TN is shown in Table 14, and the change of the blood pressure in the patients to whom no hypotensive agent was administrated in combination with TN is shown in Table 15.\nIn each of the foregoing Tables, N indicates the number of the patients, and S.D. denotes the standard deviation."}, "[3]": {"test": "Clinical Test I, double blind: general improvement", "settings": "for General improvement: Not Changed / General improvement: Partial Improvement / General improvement: Remarkable Improvement / General improvement: Slight Improvement / General improvement: Worsened: number of patients", "protocol": "Two capsules were orally administered at one time, and the administration was conducted three times a day after eating. The period of the administration was principally 4 weeks or 6 weeks. During this period, the administration was performed continuously. Combined administration of drugs having the same function as that of TN (vitamin E drugs, nicotinic acid, its derivatives and peripheral vasolidators) was prohibited.\nThe general improvement was evaluated by the attendant physician based on subjective symptoms and test results according to the following scale:\ni: remarkable improvement\nWhen 2, 4 or 6 weeks had passed from the start of the administration, the improvement was evaluated based on the symptoms before the administration."}, "[4]": {"test": "Clinical Experiment II: general improvement", "protocol": "as §1, §2\nWith respect to patients of hypertension alone, the general improvement was evaluated collectively based on subjective symptoms and clinical test data to obtain results shown in Table 23."}, "[5]": {"settings": "conclusion of both clinical experiments"}}}
{"molecule": "Cc1c(C)c2c(c(C)c1OC(=O)c1cccnc1)CCC(C)(CCCC(C)CCCC(C)CCCC(C)C)O2", "note": "(racemic) [TN, dl-α-tocopheryl nicotinate]", "values": [{"measurement": "variation of GOT, GPT, LDH and ALP", "setting": "[1]; Table 16", "result": "the variation was within the normal region"}, {"measurement": "GOT, Average Value", "setting": "[1]; after administration, N 29, S.D. ±9.51", "result": 24.90}, {"measurement": "ALP, Average Value", "setting": "[1]; after administration, N 30, S.D. ±2.21", "result": 7.21}, {"measurement": "GPT, Average Value", "setting": "[1]; after administration, N 30, S.D. ±13.40", "result": 18.73}, {"measurement": "LDH, Average Value", "setting": "[1]; after administration, N 30, S.D. ±53.94", "result": 245.03}, {"measurement": "ALP, Average Value", "setting": "[1]; before administration, N 34, S.D. ±2.36", "result": 7.37}, {"measurement": "LDH, Average Value", "setting": "[1]; before administration, N 36, S.D. ±72.42", "result": 251.28}, {"measurement": "GOT, Average Value", "setting": "[1]; before administration, N 37, S.D. ±14.92", "result": 28.59}, {"measurement": "GPT, Average Value", "setting": "[1]; before administration, N 37, S.D. ±19.46", "result": 22.73}, {"measurement": "tendency of reduction of GOT and GPT", "setting": "[1]; versus P group", "result": "greater in the TN administered group than in the P group"}, {"measurement": "hypotensive effect as compared with the P group", "setting": "[2]; Tables 12 to 15, hypertension alone significant at level lower than 5%", "result": "the hypotensive effect was attained in the TN administrated group as compared with the P group"}, {"measurement": "Maximum Pressure, Average Value, all patients", "setting": "[2]; after administration (200 mg TN 3 times per day, 4 weeks), N 35, S.D. ±23.65", "result": 141.40}, {"measurement": "Minimum Pressure, Average Value, patients of hypertension", "setting": "[2]; after administration (4 weeks), N 22, S.D. ±13.08", "result": 87.45}, {"measurement": "Maximum Pressure, Average Value, patients of hypertension", "setting": "[2]; after administration (4 weeks), N 22, S.D. ±20.69, P < 0.05", "result": 148.59}, {"measurement": "Minimum Pressure, Average Value, all patients", "setting": "[2]; after administration (4 weeks), N 35, S.D. ±13.64", "result": 81.89}, {"measurement": "Minimum Pressure, Average Value, no hypotensive agent in combination with TN", "setting": "[2]; after administration, N 8, S.D. ±13.34", "result": 87.50}, {"measurement": "Maximum Pressure, Average Value, no hypotensive agent in combination with TN", "setting": "[2]; after administration, N 8, S.D. ±19.95, P < 0.1", "result": 146.13}, {"measurement": "Minimum Pressure, Average Value, hypotensive agent administered in combination with TN", "setting": "[2]; after administration, N 14, S.D. ±13.44", "result": 87.43}, {"measurement": "Maximum Pressure, Average Value, hypotensive agent administered in combination with TN", "setting": "[2]; after administration, N 14, S.D. ±21.71", "result": 150.00}, {"measurement": "Minimum Pressure, Average Value, no hypotensive agent in combination with TN", "setting": "[2]; before administration, N 8, S.D. ±16.40", "result": 87.75}, {"measurement": "Maximum Pressure, Average Value, no hypotensive agent in combination with TN", "setting": "[2]; before administration, N 8, S.D. ±22.60", "result": 161.50}, {"measurement": "Minimum Pressure, Average Value, hypotensive agent administered in combination with TN", "setting": "[2]; before administration, N 14, S.D. ±10.75", "result": 89.71}, {"measurement": "Maximum Pressure, Average Value, hypotensive agent administered in combination with TN", "setting": "[2]; before administration, N 14, S.D. ±17.29", "result": 159.29}, {"measurement": "Minimum Pressure, Average Value, patients of hypertension", "setting": "[2]; before administration, N 22, S.D. ±12.74", "result": 89.00}, {"measurement": "Maximum Pressure, Average Value, patients of hypertension", "setting": "[2]; before administration, N 22, S.D. ±18.88", "result": 160.09}, {"measurement": "Minimum Pressure, Average Value, all patients", "setting": "[2]; before administration, N 38, S.D. ±14.78", "result": 81.37}, {"measurement": "Maximum Pressure, Average Value, all patients", "setting": "[2]; before administration, N 38, S.D. ±25.14", "result": 144.63}, {"measurement": "efficacy and safety conclusion", "setting": "[2]; [5]", "result": "very effective and safe hypotensive agent"}, {"measurement": "hypotensive effect on patients of hypertension versus P group", "setting": "[2]; [5]", "result": "higher in the TN administered group than in the P group"}, {"measurement": "effect durability", "setting": "[2]; general conclusion", "result": "high effect durability"}, {"measurement": "general improvement ratio over time", "setting": "[3]; 2, 4, 6 weeks", "result": "the improvement ratio was increased every two weeks"}, {"measurement": "General improvement: Improvement Ratio", "setting": "[3]; 2 weeks, total 38, P group 68.6 %", "result": 73.7, "unit": "%"}, {"measurement": "significance of general improvement versus P group", "setting": "[3]; 4 to 6 weeks", "result": "significantly better results were obtained in the TN group than in the P group"}, {"measurement": "General improvement: Improvement Ratio", "setting": "[3]; 4 weeks, total 39, P group 61.1 %, P = 0.0127", "result": 87.2, "unit": "%"}, {"measurement": "General improvement: Improvement Ratio", "setting": "[3]; 6 weeks, total 21, P group 63.6 %, P = 0.0094", "result": 95.2, "unit": "%"}, {"measurement": "General improvement: Not Changed", "setting": "[3]; 2 weeks, total 38", "result": 9}, {"measurement": "General improvement: Partial Improvement", "setting": "[3]; 2 weeks, total 38", "result": 13}, {"measurement": "General improvement: Remarkable Improvement", "setting": "[3]; 2 weeks, total 38", "result": 6}, {"measurement": "General improvement: Slight Improvement", "setting": "[3]; 2 weeks, total 38", "result": 9}, {"measurement": "General improvement: Worsened", "setting": "[3]; 2 weeks, total 38", "result": 1}, {"measurement": "General improvement: Not Changed", "setting": "[3]; 4 weeks, total 39", "result": 5}, {"measurement": "General improvement: Partial Improvement", "setting": "[3]; 4 weeks, total 39", "result": 14}, {"measurement": "General improvement: Remarkable Improvement", "setting": "[3]; 4 weeks, total 39", "result": 6}, {"measurement": "General improvement: Slight Improvement", "setting": "[3]; 4 weeks, total 39", "result": 14}, {"measurement": "General improvement: Worsened", "setting": "[3]; 4 weeks, total 39", "result": 0}, {"measurement": "General improvement: Not Changed", "setting": "[3]; 6 weeks, total 21", "result": 1}, {"measurement": "General improvement: Partial Improvement", "setting": "[3]; 6 weeks, total 21", "result": 7}, {"measurement": "General improvement: Remarkable Improvement", "setting": "[3]; 6 weeks, total 21", "result": 8}, {"measurement": "General improvement: Slight Improvement", "setting": "[3]; 6 weeks, total 21", "result": 5}, {"measurement": "General improvement: Worsened", "setting": "[3]; 6 weeks, total 21", "result": 0}, {"measurement": "General improvement: Improvement Ratio", "setting": "[4]; P group 52.94, P < 0.05", "result": 86.36, "unit": "%"}, {"measurement": "general improvement versus P group", "setting": "[4]; conclusion of both clinical experiments, significance lower than 0.5%", "result": "significantly excellent over that in the P group at a level of significance lower than 0.5%"}, {"measurement": "general improvement versus P group", "setting": "[4]; level of significance lower than 5%", "result": "excellent over that in the P group at a level of significance lower than 5%"}, {"measurement": "General improvement: Not Changed", "setting": "[4]; number of patients, total 22", "result": 3}, {"measurement": "General improvement: Partial Improvement", "setting": "[4]; number of patients, total 22", "result": 7}, {"measurement": "General improvement: Remarkable Improvement", "setting": "[4]; number of patients, total 22", "result": 4}, {"measurement": "General improvement: Slight Improvement", "setting": "[4]; number of patients, total 22", "result": 8}, {"measurement": "General improvement: Worsened", "setting": "[4]; number of patients, total 22", "result": 0}]}
